Assay [1] has as its system experimental NEC in newborn mice. Nature of the assay: Murine model of necrotizing enterocolitis (formula gavage + hypoxia), CpG treatment. It counts as in vivo, mouse. The procedure: FIG. 18A-D. Histology of intestines from mice that were (A) breast fed (control); (B) gavage fed+hypoxic to model necrotizing enterocolitis (NEC); (C) breast fed and treated with 500 μg/kg (approximately 10 μg/animal, intraperitoneally injected) CpG (control); (D) gavage fed+hypoxic to model NEC and treated with 500 μg/kg (approximately 10 μg/animal, intraperitoneally injected) CpG.
(A) Control mice (injected with saline). (B) Mice injected with 5 mg/kg of LPS. (C) Mice injected with 5 mg/kg of LPS and 1 mg/kg of CpG. (D-G) Immunohistochemical staining of terminal ileum from newborn mice that were either breast fed (“control”) or induced to develop NEC (“NEC”). Sections were stained for caspase 3 as a marker of apoptosis and enterocyte loss; positive staining is indicated by a small arrowhead. (D) Control injected with saline. (E) NEC injected with saline. (F) Control injected with 1 mg/kg CpG-DNA daily for four days. (G) NEC injected with 1 mg/kg CpG-DNA daily for four days. (H) Bar graph summarizing results, showing percent apoptosis in terminal ileum as depicted in (D)-(G).
FIG. 20A-I. Newborn mice were either breast fed (“control”) or were induced to develop NEC (“NEC”). (A) Gross micrograph of intestine of a control mouse. (B) Gross micrograph of intestine of a control mouse treated with 1 mg/kg CpG-DNA daily for four days. (C) Gross micrograph of intestine of a NEC mouse. (D) Gross micrograph of intestine of a NEC mouse treated with 1 mg/kg CpG-DNA daily for four days. (E) Micrograph of histological section of intestine of a control mouse. (F) Micrograph of histological section of intestine of a control mouse treated with CpG. (G) Micrograph of histological section of intestine of a NEC mouse. (H) Micrograph of histological section of intestine of a NEC mouse treated with CpG. (I) Summary bar graph of the above results.
FIG. 16 presents a Western blot showing expression of TLR4 and TLR9 in control mice and mice modeling necrotizing enterocolitis (“NEC”). A substantial increase in the level of TLR4, and a decrease in TLR9, was observed. […]

For the next assay, the system named is enterocytes. Nature of the assay: LPS-mediated NF-κB (p65) translocation in enterocytes, with and without TLR9 siRNA knock-down. Format: cell-based. The procedure:
FIG. 7A-E. LPS-mediated translocation in enterocytes which are either (A) untreated or treated with (B) 50 μg/ml LPS; (C) 50 μg/ml LPS+10 μM CpG; or (D) 10 μM CpG. (E) Bar graph showing the nuclear:cytoplasmic ratio for NF-κB in (A)-(D).
FIG. 9A-F. CpG-DNA reduces TLR4 signaling through TLR9 in enterocytes. (A) Western blot showing the amounts of TLR9 protein relative to actin in untreated enterocytes (Ctrl) or in enterocytes treated with 0.084 μM non-specific siRNA or siRNA specific for TLR9. (B)-(E) are immunofluorescence studies showing the relative amounts of p65 in the enterocyte nucleus versus its cytoplasm, when either (B) untreated or treated with (C) 50 μg/ml LPS; (D) 50 μg/ml LPS+10 μM CpG (in the context of normal TLR9 levels) or (E) 50 μg/ml LPS+10 μM CpG (in the context of TLR9 knockdown by siRNA). (E) Bar graph showing the results of (B)-(E).
A second series of experiments was designed to study the consequences of the TLR4 activator LPS and the TLR9 activator CpG on the mediator of activated TLR4, NFκB. As shown by comparing FIGS. 7A and B, LPS causes NFκB to translocate into the nucleus. The extent of translocation caused by LPS is decreased by co-exposure to CpG (FIGS. 7C and E).
All the foregoing three series of experiments have shown that CpG (an activator of TLR9) inhibited the effects of TLR4 activation, including its role in promoting inflammation. […]

Setting [2] is: NEC mice, 1 mg/kg CpG-DNA daily for four days.

5′-TCCATGACGTTCCTGACGTT-3′ [CpG-DNA]: in assay [1] (setting [2]), the “NEC pathology (gross and histological)” value is on record as “substantial inhibition of the NEC pathology”; the “apoptosis in terminal ileum (caspase 3)” value is “substantially reduced apoptosis”. In assay [1] (wild-type TLR4 mice, 500 μg/kg CpG intraperitoneally), the “severity of experimental NEC” value is recorded as “limit the severity of experimental NEC”. Moreover, the “attenuating effect of CpG on translocation of NFκB subunit p65” value in the assay with enterocytes (enterocytes with TLR9 expression suppressed by siRNA, 50 μg/ml LPS + 10 μM CpG) is reported as “virtually eliminated”. Further, the “extent of NFκB translocation into the nucleus caused by LPS” value with enterocytes (enterocytes, 50 μg/ml LPS + 10 μM CpG vs LPS alone) is reported as “decreased”.

For the origin of these results see US8518903B2, “Use of toll-like receptor-9 agonists” (University of Pittsburgh—of the Commonwealth System of …, priority 2007, dated 2013).
